From patent US20070265301A1, “Dpp-IV Inhibitors” (priority 2004, published 2007) come the findings set out here.

Where a name gives a salt, the structure may show the parent alone.

T1 sequence (P27487 31-766): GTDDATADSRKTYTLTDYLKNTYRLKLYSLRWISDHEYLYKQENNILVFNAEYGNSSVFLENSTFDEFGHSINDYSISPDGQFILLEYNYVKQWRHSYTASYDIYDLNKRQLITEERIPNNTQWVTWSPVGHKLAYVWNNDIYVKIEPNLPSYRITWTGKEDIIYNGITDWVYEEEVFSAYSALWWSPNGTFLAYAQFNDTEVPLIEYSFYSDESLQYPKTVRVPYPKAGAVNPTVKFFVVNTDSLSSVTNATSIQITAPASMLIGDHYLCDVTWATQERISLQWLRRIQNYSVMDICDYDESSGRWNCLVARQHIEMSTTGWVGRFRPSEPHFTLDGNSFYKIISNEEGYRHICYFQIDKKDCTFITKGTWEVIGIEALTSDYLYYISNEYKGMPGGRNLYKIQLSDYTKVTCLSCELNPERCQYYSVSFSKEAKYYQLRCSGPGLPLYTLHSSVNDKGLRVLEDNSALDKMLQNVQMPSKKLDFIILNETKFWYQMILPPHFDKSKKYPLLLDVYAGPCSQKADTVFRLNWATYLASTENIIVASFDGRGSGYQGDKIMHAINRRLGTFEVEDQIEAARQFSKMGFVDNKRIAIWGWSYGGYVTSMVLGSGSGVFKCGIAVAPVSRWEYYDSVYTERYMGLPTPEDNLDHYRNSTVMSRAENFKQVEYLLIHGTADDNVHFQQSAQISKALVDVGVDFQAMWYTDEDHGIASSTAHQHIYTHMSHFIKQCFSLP

This assay concerns the target T1, DPP-IV (Homo sapiens, UniProt P27487).
T1 construct: Soluble human DPP-IV lacking the transmembrane anchor (Gly31-Pro766); Pre-Pro-alpha-mating factor leader (secretion signal) (N, cleaved yes); made in house
Kind of assay: Continuous fluorimetric assay of DPP-IV peptidase activity (Gly-Pro-AMC cleavage). Format: biochemical. Conditions: 50 pM DPP-IV, 16 μM Gly-Pro-AMC, pH 7.4, 25° C., 1% DMSO; values grouped in 3 classes; read-out: IC50 for inhibition of DPP-IV peptidase activity. The procedure: Inhibition of DPP-IV peptidase activity was monitored with a continuous fluorimetric assay. This assay is based on the cleavage of the substrate Gly-Pro-AMC (Bachem) by DPP-IV, releasing free AMC. The assay is carried out in 96-well microtiterplates. In a total volume of 100 μL, compounds are preincubated with 50 pM DPP-IV employing a buffer containing 10 mM Hepes, 150 mM NaCl, 0.005% Tween 20 (pH 7.4). The reaction is started by the addition of 16 μM substrate and the fluorescence of liberated AMC is detected for 10 minutes at 25° C. with a fluorescence reader (BMG-Fluostar; BMG-Technologies) using an excitation wavelength of 370 nm and an emission wavelength of 450 nm. The final concentration of DMSO is 1%. The inhibitory potential of the compounds were determined.
Soluble human DPP-IV lacking the transmembrane anchor (Gly31-Pro766) was expressed in a recombinant YEAST-strain as Pre-Pro-alpha-mating fusion. The secreted product (rhuDPP-IV-Gly31-Pro766) was purified from fermentation broth (>90% purity).
In the table are listed the IC50 values for inhibition of DPP-IV peptidase activity determined in assays as described above.
On to `N[C@@H](CC(=O)N1Cc2ccccc2C[C@H]1CNC(=O)CO)Cc1ccccc1F` [Example 3, N-{2-[(3R)-3-Amino-4-(2-fluoro-phenyl)-butyryl-1,2,3,4-tetrahydroisoquinolin-(3S)-3-ylmethyl}-2-hydroxy-acetamide, trifluoroacetate salt], for which the IC50 lay within 101 to 1000 nM.

Take `N[C@@H](CC(=O)N1Cc2ccccc2C[C@H]1CNC(=O)C1CC1)Cc1ccccc1F` [Example 1, Cyclopropanecarboxylic acid {2-[(3R)-3-amino-4-(2-fluoro-phenyl)-butyryl]-1,2,3,4-tetrahydro-isoquinolin-(3S)-3-ylmethyl]-amide, trifluoroacetate salt]: the IC50 was 101 to 1000 nM.

For `N[C@@H](CC(=O)N1Cc2ccccc2C[C@H]1CNS(=O)(=O)C1CC1)Cc1cccc(Cl)c1` [Example 10, Cyclopropanesulfonic acid {2-[(3R)-3-amino-4-(3-chloro-phenyl)-butyryl]-1,2,3,4-tetrahydro-isoquinolin-(3S)-3-ylmethyl]-amide, trifluoroacetate salt], the IC50 is ≤ 100 nM.

Regarding `Cc1cc(C(=O)NC[C@@H]2Cc3ccccc3CN2C(=O)C[C@H](N)Cc2ccccc2F)no1` [Example 5, 5-Methyl-isoxazole-3-carboxylic acid-{2-[(3R)-3-amino-4-(2-fluoro-phenyl)-butyryl]-1,2,3,4-tetrahydro-isoquinolin-(3S)-3-ylmethyl}-amide, trifluoroacetate salt], the IC50 was ≤ 100 nM.

As to `CS(=O)(=O)NC[C@@H]1Cc2ccccc2CN1C(=O)C[C@H](N)Cc1ccccc1F` [Example 8, N-{2-[(3R)-3-Amino-4-[2-fluoro-phenyl)-butyryl]-1,2,3,4-tetrahydro-isoquinolin-(3S)-3-ylmethyl}-methanesulfonamide, trifluoroacetate salt], the IC50 is ≤ 100 nM.

Turning to `Nc1nc(C(=O)NC[C@@H]2Cc3ccccc3CN2C(=O)C[C@H](N)Cc2ccccc2F)n[nH]1` [Example 6, 5-Amino-1H-[1,2,4]triazole-3-carboxylic acid-{2-[(3R)-3-amino-4-(2-fluoro-phenyl)-butyryl]-1,2,3,4-tetrahydro-isoquinolin-(3S)-3-ylmethyl-amide, trifluoroacetate salt], the IC50 is ≤ 100 nM.

On to `CN(C)C[C@@H]1Cc2ccccc2CN1C(=O)C[C@H](N)Cc1ccccc1F` [Example 7, (3R)-3-Amino-1-(3S)-3-(3-dimethylaminomethyl-3,4-dihydro-1H-isoquinolin-2-yl)-4-(2-fluorophenyl)-butan-1-one, trifluoroacetate salt], for which the IC50 lay within 1000 to 2000 nM.

Regarding `N[C@@H](CC(=O)N1Cc2ccccc2C[C@H]1CNC(=O)C1(O)CC1)Cc1ccccc1F` [Example 2, 1-Hydroxy-cyclopropanecarboxylic acid {2-[(3R)-3-amino-4-(2-fluoro-phenyl)-butyryl]-1,2,3,4-tetrahydro-isoquinolin-(3S)-3-ylmethyl}-amide, trifluoroacetate salt], the IC50 lay within 101 to 1000 nM.

For `N[C@@H](CC(=O)N1Cc2ccccc2CC1COCc1ccccc1)Cc1ccccc1F` (stereo partly drawn) [Example 14, (3R)-3-Amino-1-benzyloxymethyl-3,4-dihydro-1H-isoquinolin-2-yl)-4-(2-fluorophenyl)-butan-1-one, trifluoroacetate salt], the IC50 is ≤ 100 nM.

Regarding `NC(CC(=O)N1Cc2ccccc2C[C@H]1CNS(=O)(=O)C1CC1)Cc1cc(F)ccc1F` (mixture of isomers) [Example 11, Cyclopropanesulfonic acid {2-[(3-amino-4-(2,5-difluoro-phenyl)-butyryl]-1,2,3,4-tetrahydro-isoquinolin-(3S)-3-ylmethyl}-amide, trifluoroacetate salt], the IC50 is ≤ 100 nM.

Consider `N[C@@H](CC(=O)N1Cc2ccccc2C[C@H]1COc1cccc(F)c1)Cc1ccccc1F` [Example 12, trifluoroacetate salt], for which the IC50 is ≤ 100 nM.

Regarding `N[C@@H](CC(=O)N1Cc2ccccc2C[C@H]1CNC(=O)c1ccccc1)Cc1ccccc1F` [Example 4, N-{2-[(3R)-3-Amino-4-(2-fluoro-phenyl)-butyryl}-1,2,3,4-tetrahydro-isoquinolin-(3S)-3-ylmethyl}-benzamide, trifluoroacetate salt], the IC50 was ≤ 100 nM.

As to `N[C@@H](CC(=O)N1c2ccccc2CC1COCc1ccccc1)Cc1ccccc1F` (mixture of isomers) [Example 13, (3R)-3-Amino-1-benzyloxymethyl-2,3-dihydro-indo-1-yl)-4-(2-fluorophenyl)-butan-1-one trifluoroacetate salt], the IC50 lay within 1000 to 2000 nM.

Regarding `N[C@@H](CC(=O)N1Cc2ccccc2C[C@H]1CNS(=O)(=O)C1CC1)Cc1ccccc1F` [Example 9, Cyclopropanesulfonic acid {2-[(3R)-3-amino-4-(2-fluoro-phenyl)-butyryl]-1,2,3,4-tetrahydro-isoquinolin-(3S)-3-ylmethyl-amide, trifluoroacetate salt], the IC50 is ≤ 100 nM.

The IC50 is the midpoint of a concentration-inhibition curve.
